This passage reports T/C results from PubChem BioAssay AID330 (DTP/NCI, 2004).

Molecules are shown by their SMILES. Several values for one entry are separate records, joined by “and”; a condition that tells them apart may be missing. Equal entries are not always repeated. Toxic doses and inconclusive results are not listed.

The subject of this assay is P388 leukemia ip, CD2F1 mice, survival T/C. The assay is described as follows: NCI In Vivo Anticancer Drug Screen. Data for tumor model P388 Leukemia (intraperitoneal) in CD2F1 (CDF1) mice. The following applies: endpoint: median survival time, higher = longer survival. Put shortly:
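Mice carrying the transplanted tumor received test compound or vehicle. Survival was recorded in each group, and the value is the treated-group measurement divided by that of the vehicle-treated control group.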

[1] abbreviates: dose: 60.0 mg/kg/injection, schedule: Q01DX005 (ip), vehicle: saline with Tween-80.
[2] abbreviates: dose: 120.0 mg/kg/injection, schedule: Q01DX005 (ip), vehicle: saline with Tween-80.
Where [3] appears, read: dose: 240.0 mg/kg/injection, schedule: Q01DX005 (ip), vehicle: saline with Tween-80.
[4] abbreviates: dose: 60.0 mg/kg/injection, schedule: Q01DX005 (ip), vehicle: Klucel (hydroxypropylcellulose) (HPC).
Where [5] appears, read: dose: 120.0 mg/kg/injection, schedule: Q01DX005 (ip), vehicle: Klucel (hydroxypropylcellulose) (HPC).
Where [6] appears, read: dose: 50.0 mg/kg/injection, schedule: Q01DX009 (ip), vehicle: Klucel (hydroxypropylcellulose) (HPC).
The mark [7] stands for this setting: dose: 100.0 mg/kg/injection, schedule: Q01DX009 (ip), vehicle: Klucel (hydroxypropylcellulose) (HPC).
[8] abbreviates: dose: 200.0 mg/kg/injection, schedule: Q01DX009 (ip), vehicle: Klucel (hydroxypropylcellulose) (HPC).
The mark [9] stands for this setting: dose: 50.0 mg/kg/injection, schedule: Q01DX009 (ip), vehicle: saline with Tween-80.
Setting [10] is: dose: 100.0 mg/kg/injection, schedule: Q01DX009 (ip), vehicle: saline with Tween-80.
Setting [11] is: dose: 100.0 mg/kg/injection, schedule: Q01DX009 (ip), vehicle: saline.

With `N#CN=[N+]([O-])c1ccccc1Cl`, the T/C was 100 % of control (dose: 3.12 mg/kg/injection, schedule: Q01DX009 (ip), vehicle: Klucel (hydroxypropylcellulose) (HPC)); 107 % of control (dose: 6.25 mg/kg/injection, schedule: Q01DX009 (ip), vehicle: Klucel (hydroxypropylcellulose) (HPC)); 91 % of control (dose: 6.25 mg/kg/injection, schedule: Q04DX003 (ip), vehicle: Klucel (hydroxypropylcellulose) (HPC)); 109 % of control (dose: 12.5 mg/kg/injection, schedule: Q01DX009 (ip), vehicle: Klucel (hydroxypropylcellulose) (HPC)); 100 % of control (dose: 12.5 mg/kg/injection, schedule: Q04DX003 (ip), vehicle: Klucel (hydroxypropylcellulose) (HPC)); 91 % of control (dose: 25.0 mg/kg/injection, schedule: Q04DX003 (ip), vehicle: Klucel (hydroxypropylcellulose) (HPC)).

On to `O=S(=O)(Nc1cccc(Cl)c1)c1ccc(F)cc1`, for which the T/C runs as follows: under setting [1], 96 % of control; under setting [2], 99 % of control; under setting [3], 101 % of control.

For the compound `COc1cc([C@@H]2c3cc4c(cc3[C@H](O)[C@H]3COC(=O)[C@@H]23)OCO4)cc(OC)c1OC`, the T/C was 109 % of control (dose: 7.5 mg/kg/injection, schedule: Q01DX010 (ip), vehicle: saline); 95 % of control (dose: 25.0 mg/kg/injection, schedule: Q04DX003 (ip), vehicle: saline sonified); 172 % of control (dose: 30.0 mg/kg/injection, schedule: Q01DX010 (ip), vehicle: saline); 112 % of control (dose: 50.0 mg/kg/injection, schedule: Q04DX003 (ip), vehicle: saline sonified); 154 % of control (dose: 100.0 mg/kg/injection, schedule: Q04DX003 (ip), vehicle: saline sonified).

In the case of `N#Cc1nn(C(N)=O)c(N)c1C#N`, the T/C reads like this: under setting [4], 104 % of control; under setting [5], 105 % of control; (dose: 240.0 mg/kg/injection, schedule: Q01DX005 (ip), vehicle: Klucel (hydroxypropylcellulose) (HPC)) 103 % of control.

Turning to `Cc1cc(C)nc(NCCCNc2nc(C)cc(C)n2)n1`, the T/C was 101 % of control (dose: 50.0 mg/kg/injection, schedule: Q01DX005 (ip), vehicle: Klucel (hydroxypropylcellulose) (HPC)); 98 % of control (dose: 100.0 mg/kg/injection, schedule: Q01DX005 (ip), vehicle: Klucel (hydroxypropylcellulose) (HPC)); 100 % of control (dose: 200.0 mg/kg/injection, schedule: Q01DX005 (ip), vehicle: Klucel (hydroxypropylcellulose) (HPC)).

As for `Cc1nnc2c(c(=O)n(C)c(=O)n2C)[n+]1[O-]`, the T/C reads like this: (dose: 12.5 mg/kg/injection, schedule: Q01DX001 (ip), vehicle: saline) 105 % of control; (dose: 25.0 mg/kg/injection, schedule: Q01DX001 (ip), vehicle: saline) 109 % of control; (dose: 50.0 mg/kg/injection, schedule: Q01DX001 (ip), vehicle: saline) 106 % of control.

On to `N#Cc1c(Cl)nsc1-c1ccc([N+](=O)[O-])cc1`, for which the T/C is 119 % of control under setting [6], 92 % of control under setting [7] and 103 % of control under setting [8].

`NNC(=O)CNc1ccccc1Br`: the T/C under setting [4] is 97 % of control and the T/C under setting [5] is 98 % of control.

Consider `[O-]c1n[n+](-c2ccccc2)no1`, for which the T/C runs as follows: (dose: 3.13 mg/kg/injection, schedule: Q01DX009 (ip), vehicle: other) 97 % of control; (dose: 6.25 mg/kg/injection, schedule: Q01DX009 (ip), vehicle: other) 96 % of control; (dose: 12.5 mg/kg/injection, schedule: Q01DX009 (ip), vehicle: other) 109 % of control; (dose: 25.0 mg/kg/injection, schedule: Q01DX009 (ip), vehicle: other) 101 % of control.

For the compound `O=C1CCC(=O)N(CNc2cccc(Cc3cccc(NCN4CC(=O)CCC4=O)c3)c2)C1`, the T/C reads like this: under setting [1], 91 % of control; under setting [2], 91 % of control; under setting [3], 89 % of control.

Regarding `CCOC(=O)c1cc(OC(C)=O)c2c(ccc3ccccc32)c1C`, the T/C runs as follows: under setting [7], 95 % of control; under setting [8], 90 % of control; (dose: 400.0 mg/kg/injection, schedule: Q01DX009 (ip), vehicle: Klucel (hydroxypropylcellulose) (HPC)) 95 % of control.

Consider `CC[As](CCO)SC1CC(OC(=O)c2ccccc2)C(OC(=O)c2ccccc2)C(COC(=O)c2ccccc2)O1` (stereo not drawn), for which the T/C by setting is: (dose: 25.0 mg/kg/injection, schedule: Q01DX009 (ip), vehicle: saline with Tween-80) 110 % of control; (dose: 50.0 mg/kg/injection, schedule: Q01DX009 (ip), vehicle: saline + alcohol) 124 % of control; under setting [9], 96 % of control; under setting [10], 110 % of control.

`CC(C)(C)N1C(=O)[N+]2(CCCCC2)N=C1[O-]`: the T/C runs as follows: (dose: 100.0 mg/kg/injection, schedule: Q04DX003 (ip), vehicle: saline with Tween-80) 93 % of control; (dose: 200.0 mg/kg/injection, schedule: Q04DX003 (ip), vehicle: saline with Tween-80) 99 % of control; (dose: 400.0 mg/kg/injection, schedule: Q04DX003 (ip), vehicle: saline with Tween-80) 86 % of control.

With `O=C(N/N=C/c1ccc(/C=N/NC(=O)c2cccnc2)cc1)c1cccnc1`, the T/C runs as follows: under setting [9], 102 % of control; under setting [10], 96 % of control; (dose: 200.0 mg/kg/injection, schedule: Q01DX009 (ip), vehicle: saline with Tween-80) 93 % of control.

For `CC(=NC(C)C)N1CCCCC1`, the T/C by setting is: (dose: 50.0 mg/kg/injection, schedule: Q01DX009 (ip), vehicle: saline) 101 % of control; under setting [11], 101 % of control.

`CNP1(NC)=NP(NC)(NC)=NP(NC)(NC)=NP(NC)(NC)=N1`: the T/C (dose: 50.0 mg/kg/injection, schedule: Q01DX005 (ip), vehicle: saline) is 115 % of control; the T/C (dose: 100.0 mg/kg/injection, schedule: Q01DX005 (ip), vehicle: saline) was 110 % of control; the T/C (dose: 200.0 mg/kg/injection, schedule: Q01DX005 (ip), vehicle: saline) was 104 % of control.

For the compound `CC(C)(O)[C@@H]1CC(=O)[C@]2(C)[C@H](CC[C@@]3(C)C(c4ccoc4)OC(=O)[C@H]4O[C@]432)[C@@]1(C)/C=C/C(=O)O` (stereo partly drawn), the T/C is 98 % of control (dose: 0.75 mg/kg/injection, schedule: Q01DX009 (ip), vehicle: saline + alcohol); 100 % of control (dose: 1.5 mg/kg/injection, schedule: Q01DX009 (ip), vehicle: saline + alcohol); 97 % of control (dose: 3.0 mg/kg/injection, schedule: Q01DX009 (ip), vehicle: saline + alcohol); 99 % of control (dose: 6.0 mg/kg/injection, schedule: Q01DX009 (ip), vehicle: saline + alcohol).

In the case of `O=S(=O)(NCCSSCCNS(=O)(=O)c1ccc(Cl)cc1)c1ccc(Cl)cc1`, the T/C was 92 % of control under setting [6], 91 % of control under setting [7] and 88 % of control under setting [8].

As for `CN(C(=S=O)c1ccc(Cl)cc1)c1ccccc1`, the T/C (dose: 25.0 mg/kg/injection, schedule: Q01DX009 (ip), vehicle: suspension in saline) was 101 % of control; the T/C (dose: 50.0 mg/kg/injection, schedule: Q01DX009 (ip), vehicle: suspension in saline) is 95 % of control; the T/C under setting [11] was 90 % of control; the T/C (dose: 100.0 mg/kg/injection, schedule: Q01DX009 (ip), vehicle: suspension in saline) was 105 % of control and 97 % of control; the T/C (dose: 200.0 mg/kg/injection, schedule: Q01DX009 (ip), vehicle: saline) is 94 % of control.

For the compound `C/C(C(=O)c1ccccc1)=C1/NC(C)(C)CO1`, the T/C was 101 % of control under setting [1], 103 % of control under setting [2] and 101 % of control under setting [3].
